The record followed here is PubChem BioAssay AID1259407 (Chemical Carcinogenesis Research Information System (CCRIS), 2018).

The series relates to CCRIS mutagenicity, Ames/micronucleus/aberration tests. Nature of the series: CCRIS mutagenicity studies. Conditions: Test System: AMES SALMONELLA TYPHIMURIUM

Active and inactive are the calls of the source. The rule behind the calls is not given here.

As for `Cc1ccc(NC2OC[C@@H](O)[C@@H](O)[C@@H]2O)cc1` (stereo partly drawn), the mutagenic call (Strain/Indicator: TA100, Metabolic Activation: NONE, Method: LIQUID INCUBATION) is “active; positive”.
Regarding `c1cnc2c(c1)[C@@H]1O[C@H]1C1OC21` (stereo partly drawn), the mutagenic call is “inactive; negative” (Strain/Indicator: TA100, Metabolic Activation: NONE, Method: STANDARD PLATE) and “inactive; negative” (Strain/Indicator: TA100, Metabolic Activation: RAT, LIVER, S-9, AROCLOR 1254 (10% OR 20%), Method: STANDARD PLATE).
Turning to `Cc1ccc(S(=O)(=O)NC(=O)NN2CCCCCC2)cc1`, the mutagenic call was “inactive; negative” (Strain/Indicator: TA97, Metabolic Activation: HAMSTER, LIVER, S-9, AROCLOR 1254 (10%), Method: PREINCUBATION); “inactive; negative” (Strain/Indicator: TA97, Metabolic Activation: HAMSTER, LIVER, S-9, AROCLOR 1254 (30%), Method: PREINCUBATION); “inactive; negative” (Strain/Indicator: TA97, Metabolic Activation: NONE, Method: PREINCUBATION); “inactive; negative” (Strain/Indicator: TA97, Metabolic Activation: RAT, LIVER, AROCLOR 1254 (30%), Method: PREINCUBATION); “inactive; negative” (Strain/Indicator: TA97, Metabolic Activation: RAT, LIVER, S-9, AROCLOR 1254 (10%), Method: PREINCUBATION); “inactive; negative” (Strain/Indicator: TA98, Metabolic Activation: HAMSTER, LIVER, S-9, AROCLOR 1254 (10 OR 30%), Method: PREINCUBATION). Further, the mutagenic call was “inactive; negative” (Strain/Indicator: TA98, Metabolic Activation: NONE, Method: PREINCUBATION); “inactive; negative” (Strain/Indicator: TA98, Metabolic Activation: RAT, LIVER, S-9, AROCLOR 1254 (10 OR 30%), Method: PREINCUBATION); “inactive; negative” (Strain/Indicator: TA100, Metabolic Activation: HAMSTER, LIVER, S-9, AROCLOR 1254 (10 OR 30%), Method: PREINCUBATION); “inactive; negative” (Strain/Indicator: TA100, Metabolic Activation: NONE, Method: PREINCUBATION); “inactive; negative” (Strain/Indicator: TA100, Metabolic Activation: RAT, LIVER, S-9, AROCLOR 1254 (10%), Method: PREINCUBATION); “inactive; negative” (Strain/Indicator: TA1535, Metabolic Activation: HAMSTER, LIVER, S-9, AROCLOR 1254 (10%), Method: PREINCUBATION). In addition, the mutagenic call by setting is: (Strain/Indicator: TA1535, Metabolic Activation: HAMSTER, LIVER, S-9, AROCLOR 1254 (30%), Method: PREINCUBATION) “active; positive”; (Strain/Indicator: TA1535, Metabolic Activation: NONE, Method: PREINCUBATION) “inactive; negative”; (Strain/Indicator: TA1535, Metabolic Activation: RAT, LIVER, S-9, AROCLOR 1254 (10 OR 30%), Method: PREINCUBATION) “inactive; negative”.
